Publication PMC8909834, “An Orally Bioavailable and Highly Efficacious Inhibitor of CDK9/FLT3 for the Treatment of Acute Myeloid Leukemia” (Cancers, 2022)

Experiments:
Assay in all cases: Kinase Hotspot radiolabel assay
Format in all cases: biochemical
Conditions in all cases: read-out: % Residual Activity
ALK6/BMPR1B = target: T1, ALK6/BMPR1B (Homo sapiens, UniProt O00238)
T1 construct: purchased Reaction Biology Corporation (Kinase HotSpot)
Procedure: (§1) Kinase assay. The ADP Glo^TM kinase assay (Promega, Madison, WI, USA) was used to assess the inhibition by CDDD11-8 of CDKs 1, 2, 4, 6, 7, and 9, as well as the mutant isoforms of FLT3. The assays were performed in accord with the manufacturer’s protocol (Promega) as described previously. Briefly, serial three-fold dilutions of CDDD11-8 were prepared in 100% DMSO from a 2 mM stock solution, followed by 1:40 dilution into Milli-Q water. Subsequently, 1 µL of each sample was incubated with 4 µL of kinase mixture containing a particular CDK enzyme and its substrate, standard kinase buffer [3 mM MgCl2, 50 mM HEPES-NaOH pH 7.5, 3 mM MnCl2, 3 µM Na-orthovanadate, 1 mM dithiothreitol (DTT)], kinase dilution buffer (containing 0.25 mg/mL PEG20,000, 50 mM HEPES-NaOH pH 7.5, 1 mM DTT), and ATP at 37 °C for 30 to 40 min. The final reaction mixture contained 0.5% DMSO in all samples, and the applied kinase concentrations were 1, 1, 10, 40, 20, and 50 nM for CDK1, 2, 4, 6, 7, and 9, respectively. The reaction was stopped by adding ADP-Glo reagent and the mixture was incubated further in the dark at room temperature for 40 min. As a final step, kinase detection reagent was added to each mixture and incubated at room temperature for 30 to 60 min. Luminescence was read using an EnVision® multilabel plate reader (PerkinElmer, Beaconsfield, UK), and half-maximum inhibitory concentrations (IC50) were calculated using a non-linear regression model with a variable slope, plotting log (inhibitor concentration) vs. response using the following formula: Ar%=Bottom+Top−Bottom/1+Inhibitor Concentration/IC50^HillSlope where the relative activity Ar (%) is the signal relative to the controls, IC50 is the half maximum concentration, Hillslope is the steepness of the dose-response curve, Top and Bottom are plateaus reflecting the maximum and minimum in responses on the Y-axis (GraphPad Prism version 7, San Diego, CA, USA). Ki values were calculated from the IC50 using the Cheng−Prusoff equation [32]. Extensive specificity assessment was carried out by Reaction Biology Corporation (Malvern, PA, USA) with 369 kinases using 1 µM CDDD11-8 concentration in a Kinase Hotspot radiolabel assay (for experimental details, please see (Reaction Biology https://www.reactionbiology.com/). Subsequently, Ki values were determined for kinases with greater than 90% inhibition.

BMPR2 = target: T2, BMPR2 (Homo sapiens, UniProt Q13873)
T2 construct: purchased Reaction Biology Corporation (Kinase HotSpot)
T2 sequence (Q13873 27-1038): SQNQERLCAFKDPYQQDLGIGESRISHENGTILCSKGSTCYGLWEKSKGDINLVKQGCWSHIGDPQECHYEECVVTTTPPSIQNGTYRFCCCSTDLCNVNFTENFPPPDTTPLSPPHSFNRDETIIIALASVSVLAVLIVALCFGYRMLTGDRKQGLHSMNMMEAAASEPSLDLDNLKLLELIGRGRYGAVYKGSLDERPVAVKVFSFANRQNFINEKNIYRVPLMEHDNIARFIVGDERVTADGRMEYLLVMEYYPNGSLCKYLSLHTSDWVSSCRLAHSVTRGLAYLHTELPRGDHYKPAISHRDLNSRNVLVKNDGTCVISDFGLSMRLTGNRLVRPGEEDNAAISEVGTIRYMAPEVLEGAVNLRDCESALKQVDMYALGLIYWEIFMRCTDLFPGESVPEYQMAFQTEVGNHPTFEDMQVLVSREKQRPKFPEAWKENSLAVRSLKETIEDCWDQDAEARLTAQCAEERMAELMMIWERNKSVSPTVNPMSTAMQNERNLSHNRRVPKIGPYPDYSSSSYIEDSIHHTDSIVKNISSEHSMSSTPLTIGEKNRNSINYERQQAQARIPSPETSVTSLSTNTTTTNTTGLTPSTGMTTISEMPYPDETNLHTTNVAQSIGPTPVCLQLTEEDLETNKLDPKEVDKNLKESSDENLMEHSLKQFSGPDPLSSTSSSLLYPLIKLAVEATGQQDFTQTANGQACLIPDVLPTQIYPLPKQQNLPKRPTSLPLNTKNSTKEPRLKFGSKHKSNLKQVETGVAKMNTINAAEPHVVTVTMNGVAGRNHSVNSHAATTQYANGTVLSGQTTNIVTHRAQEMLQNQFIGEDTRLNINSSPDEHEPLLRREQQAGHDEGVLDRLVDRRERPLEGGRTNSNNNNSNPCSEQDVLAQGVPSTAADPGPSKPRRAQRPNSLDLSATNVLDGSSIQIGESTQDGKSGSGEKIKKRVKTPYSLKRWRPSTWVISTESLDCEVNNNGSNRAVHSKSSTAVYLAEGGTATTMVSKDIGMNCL
Procedure: as §1

CAMK2b = target: T3, CAMK2b (Homo sapiens, UniProt Q13554)
T3 construct: purchased Reaction Biology Corporation (Kinase HotSpot)
Procedure: as §1

CDK14/cyclin Y (PFTK1) = target: T4, CDK14/cyclin Y (PFTK1) (Homo sapiens, UniProt O94921)
T4 construct: purchased Reaction Biology Corporation (Kinase HotSpot)
T4 sequence (O94921 whole entry): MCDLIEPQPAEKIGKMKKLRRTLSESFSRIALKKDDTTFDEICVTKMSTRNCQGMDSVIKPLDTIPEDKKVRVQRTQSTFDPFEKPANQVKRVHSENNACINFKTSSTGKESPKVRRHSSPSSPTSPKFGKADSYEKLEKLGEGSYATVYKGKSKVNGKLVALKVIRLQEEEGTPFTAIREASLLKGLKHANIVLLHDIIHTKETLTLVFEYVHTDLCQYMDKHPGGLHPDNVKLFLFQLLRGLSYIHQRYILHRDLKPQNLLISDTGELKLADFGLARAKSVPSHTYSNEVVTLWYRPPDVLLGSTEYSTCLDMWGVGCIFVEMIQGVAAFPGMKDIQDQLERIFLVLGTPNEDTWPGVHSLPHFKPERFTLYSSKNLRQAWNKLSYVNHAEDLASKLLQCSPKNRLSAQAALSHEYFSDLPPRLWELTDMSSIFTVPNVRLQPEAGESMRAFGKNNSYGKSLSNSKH
T4 sequence (Q8ND76 whole entry partner): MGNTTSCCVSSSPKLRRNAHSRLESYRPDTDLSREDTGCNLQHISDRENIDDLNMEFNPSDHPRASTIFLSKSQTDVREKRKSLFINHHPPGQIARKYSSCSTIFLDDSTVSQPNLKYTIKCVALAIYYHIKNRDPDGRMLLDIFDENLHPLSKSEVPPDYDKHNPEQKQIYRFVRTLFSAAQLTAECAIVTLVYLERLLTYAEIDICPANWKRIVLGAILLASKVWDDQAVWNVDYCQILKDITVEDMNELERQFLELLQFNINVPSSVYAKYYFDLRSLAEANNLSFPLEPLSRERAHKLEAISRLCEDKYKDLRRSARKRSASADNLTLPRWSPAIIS
Procedure: as §1

CDK16/cyclin Y (PCTAIRE) = target: T5, CDK16/cyclin Y (PCTAIRE) (Homo sapiens, UniProt Q00536)
T5 construct: purchased Reaction Biology Corporation (Kinase HotSpot)
T5 sequence (Q00536 whole entry): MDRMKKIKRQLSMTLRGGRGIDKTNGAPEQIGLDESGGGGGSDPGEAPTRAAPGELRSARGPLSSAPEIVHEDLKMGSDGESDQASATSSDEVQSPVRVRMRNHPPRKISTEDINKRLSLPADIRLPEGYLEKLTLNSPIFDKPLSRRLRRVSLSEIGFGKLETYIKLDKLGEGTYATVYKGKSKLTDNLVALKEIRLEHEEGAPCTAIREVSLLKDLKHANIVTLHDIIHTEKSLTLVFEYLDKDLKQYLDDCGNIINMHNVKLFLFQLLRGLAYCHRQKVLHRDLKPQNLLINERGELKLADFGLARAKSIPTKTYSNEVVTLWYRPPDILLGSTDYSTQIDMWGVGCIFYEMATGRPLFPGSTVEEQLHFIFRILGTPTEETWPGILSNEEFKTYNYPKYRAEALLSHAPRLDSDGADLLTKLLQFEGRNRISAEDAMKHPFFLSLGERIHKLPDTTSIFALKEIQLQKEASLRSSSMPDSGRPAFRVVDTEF
T5 sequence (Q8ND76 whole entry partner): as the sequence (Q8ND76 whole entry partner) above
Procedure: as §1

CDK2/cyclin A = target: T6, CDK2/cyclin A (Homo sapiens, UniProt P24941)
T6 construct: purchased Reaction Biology Corporation (Kinase HotSpot)
Procedure: as §1

CDK3/cyclin E = target: T7, CDK3/cyclin E (Homo sapiens, UniProt Q00526)
T7 construct: purchased Reaction Biology Corporation (Kinase HotSpot)
Procedure: as §1

CHK1 = target: T8, CHK1 (Homo sapiens, UniProt O14757)
T8 construct: purchased Reaction Biology Corporation (Kinase HotSpot)
T8 sequence (O14757 whole entry): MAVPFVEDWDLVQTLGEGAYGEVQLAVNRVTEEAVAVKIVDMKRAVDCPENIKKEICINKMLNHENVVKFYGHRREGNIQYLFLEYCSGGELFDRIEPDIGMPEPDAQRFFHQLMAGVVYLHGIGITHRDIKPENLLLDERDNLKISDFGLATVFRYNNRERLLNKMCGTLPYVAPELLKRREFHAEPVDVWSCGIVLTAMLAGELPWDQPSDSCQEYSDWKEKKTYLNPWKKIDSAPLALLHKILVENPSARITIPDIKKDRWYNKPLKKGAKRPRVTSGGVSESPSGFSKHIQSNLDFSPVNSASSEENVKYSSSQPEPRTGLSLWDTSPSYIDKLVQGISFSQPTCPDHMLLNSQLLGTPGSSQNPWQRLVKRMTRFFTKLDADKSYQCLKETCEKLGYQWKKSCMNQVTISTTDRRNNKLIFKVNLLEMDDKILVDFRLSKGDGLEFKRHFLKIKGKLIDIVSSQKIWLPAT
Procedure: as §1

CK2a = target: T9, CK2a (Homo sapiens, UniProt P68400)
T9 construct: purchased Reaction Biology Corporation (Kinase HotSpot)
T9 sequence (P68400 whole entry): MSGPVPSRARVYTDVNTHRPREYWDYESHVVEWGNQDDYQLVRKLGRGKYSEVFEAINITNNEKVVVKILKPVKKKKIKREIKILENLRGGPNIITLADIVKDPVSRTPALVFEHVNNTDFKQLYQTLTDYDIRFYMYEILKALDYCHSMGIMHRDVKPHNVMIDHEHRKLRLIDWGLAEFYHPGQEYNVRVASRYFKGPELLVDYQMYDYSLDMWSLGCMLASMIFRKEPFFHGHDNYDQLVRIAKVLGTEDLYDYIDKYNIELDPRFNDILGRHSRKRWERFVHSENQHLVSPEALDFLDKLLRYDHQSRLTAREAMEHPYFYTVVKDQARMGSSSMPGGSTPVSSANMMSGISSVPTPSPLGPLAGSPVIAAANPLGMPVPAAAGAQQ
Procedure: as §1

DMPK2 = target: T10, DMPK2 (Homo sapiens, UniProt Q6DT37)
T10 construct: purchased Reaction Biology Corporation (Kinase HotSpot)
Procedure: as §1

EPHA1 = target: T11, EPHA1 (Homo sapiens, UniProt P21709)
T11 construct: purchased Reaction Biology Corporation (Kinase HotSpot)
Procedure: as §1

ERK2/MAPK1 = target: T12, ERK2/MAPK1 (Homo sapiens, UniProt P28482)
T12 construct: purchased Reaction Biology Corporation (Kinase HotSpot)
Procedure: as §1

FGFR2 = target: T13, FGFR2 (Homo sapiens, UniProt P21802)
T13 construct: purchased Reaction Biology Corporation (Kinase HotSpot)
Procedure: as §1

FLT4/VEGFR3 = target: T14, FLT4/VEGFR3 (Homo sapiens, UniProt P35916)
T14 construct: purchased Reaction Biology Corporation (Kinase HotSpot)
Procedure: as §1

FMS = target: T15, FMS (Homo sapiens, UniProt P07333)
T15 construct: purchased Reaction Biology Corporation (Kinase HotSpot)
Procedure: as §1

GRK5 = target: T16, GRK5 (Homo sapiens, UniProt P34947)
T16 construct: purchased Reaction Biology Corporation (Kinase HotSpot)
Procedure: as §1

GRK7 = target: T17, GRK7 (Homo sapiens, UniProt Q8WTQ7)
T17 construct: purchased Reaction Biology Corporation (Kinase HotSpot)
T17 sequence (Q8WTQ7 whole entry): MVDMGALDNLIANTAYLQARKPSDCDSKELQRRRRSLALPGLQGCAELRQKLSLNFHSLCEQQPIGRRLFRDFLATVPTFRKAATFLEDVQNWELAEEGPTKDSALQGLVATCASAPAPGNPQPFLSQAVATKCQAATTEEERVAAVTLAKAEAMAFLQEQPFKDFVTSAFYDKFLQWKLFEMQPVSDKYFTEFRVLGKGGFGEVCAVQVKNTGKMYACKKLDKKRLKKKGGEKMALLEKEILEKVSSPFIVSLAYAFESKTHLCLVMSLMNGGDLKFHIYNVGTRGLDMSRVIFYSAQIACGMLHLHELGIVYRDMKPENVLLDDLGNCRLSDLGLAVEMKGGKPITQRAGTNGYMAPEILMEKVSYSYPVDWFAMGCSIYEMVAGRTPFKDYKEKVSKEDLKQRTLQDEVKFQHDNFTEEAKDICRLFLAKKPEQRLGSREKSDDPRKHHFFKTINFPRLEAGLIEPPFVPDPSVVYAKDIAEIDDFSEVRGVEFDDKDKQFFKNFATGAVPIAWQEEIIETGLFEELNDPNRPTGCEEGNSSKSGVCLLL
Procedure: as §1

KSR2 = target: T18, KSR2 (Homo sapiens, UniProt Q6VAB6)
T18 construct: purchased Reaction Biology Corporation (Kinase HotSpot)
Procedure: as §1

LKB1 = target: T19, LKB1 (Homo sapiens, UniProt Q15831)
T19 construct: purchased Reaction Biology Corporation (Kinase HotSpot)
Procedure: as §1

NEK8 = target: T20, NEK8 (Homo sapiens, UniProt Q86SG6)
T20 construct: purchased Reaction Biology Corporation (Kinase HotSpot)
T20 sequence (Q86SG6 whole entry): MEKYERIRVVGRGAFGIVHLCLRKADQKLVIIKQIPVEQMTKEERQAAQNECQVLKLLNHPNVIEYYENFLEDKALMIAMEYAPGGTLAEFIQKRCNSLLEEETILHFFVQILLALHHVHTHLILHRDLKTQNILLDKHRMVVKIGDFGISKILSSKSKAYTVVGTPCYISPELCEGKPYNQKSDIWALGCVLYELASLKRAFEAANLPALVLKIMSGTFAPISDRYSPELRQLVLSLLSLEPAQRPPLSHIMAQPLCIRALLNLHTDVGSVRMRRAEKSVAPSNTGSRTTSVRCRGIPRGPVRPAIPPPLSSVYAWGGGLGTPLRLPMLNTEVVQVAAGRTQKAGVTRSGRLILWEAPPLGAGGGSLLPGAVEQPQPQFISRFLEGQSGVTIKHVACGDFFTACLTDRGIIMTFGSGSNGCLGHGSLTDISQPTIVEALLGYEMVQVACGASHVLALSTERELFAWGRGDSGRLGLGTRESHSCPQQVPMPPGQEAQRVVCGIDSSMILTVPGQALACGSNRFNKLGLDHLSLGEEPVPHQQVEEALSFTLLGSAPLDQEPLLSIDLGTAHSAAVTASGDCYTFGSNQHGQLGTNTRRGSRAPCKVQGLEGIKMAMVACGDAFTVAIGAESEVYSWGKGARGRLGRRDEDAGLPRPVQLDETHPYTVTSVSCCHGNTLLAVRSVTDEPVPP
Procedure: as §1

PIM3 = target: T21, PIM3 (Homo sapiens, UniProt Q86V86)
T21 construct: purchased Reaction Biology Corporation (Kinase HotSpot)
Procedure: as §1

PKCeta = target: T22, PKCeta (Homo sapiens, UniProt P24723)
T22 construct: purchased Reaction Biology Corporation (Kinase HotSpot)
Procedure: as §1

PLK2 = target: T23, PLK2 (Homo sapiens, UniProt Q9NYY3)
T23 construct: purchased Reaction Biology Corporation (Kinase HotSpot)
Procedure: as §1

SRPK2 = target: T24, SRPK2 (Homo sapiens, UniProt P78362)
T24 construct: purchased Reaction Biology Corporation (Kinase HotSpot)
Procedure: as §1

SSTK/TSSK6 = target: T25, SSTK/TSSK6 (Homo sapiens, UniProt Q9BXA6)
T25 construct: purchased Reaction Biology Corporation (Kinase HotSpot)
Procedure: as §1

STK22D/TSSK1 = target: T26, STK22D/TSSK1 (Homo sapiens, UniProt Q9BXA7)
T26 construct: purchased Reaction Biology Corporation (Kinase HotSpot)
Procedure: as §1

TSSK2 = target: T27, TSSK2 (Homo sapiens, UniProt Q96PF2)
T27 construct: purchased Reaction Biology Corporation (Kinase HotSpot)
Procedure: as §1

TSSK3/STK22C = target: T28, TSSK3/STK22C (Homo sapiens, UniProt Q96PN8)
T28 construct: purchased Reaction Biology Corporation (Kinase HotSpot)
Procedure: as §1

p70S6Kb/RPS6KB2 = target: T29, p70S6Kb/RPS6KB2 (Homo sapiens, UniProt Q9UBS0)
T29 construct: purchased Reaction Biology Corporation (Kinase HotSpot)
Procedure: as §1

Cc1cnc(N[C@H]2CC[C@H](N)CC2)nc1-c1cnc2ccc(-c3ccccc3)cn12 [CDDD11-8]
remaining activity at 1 µM (ALK6/BMPR1B): 105% | remaining activity at 1 µM (BMPR2): 90.2% | remaining activity at 1 µM (CAMK2b): 23.5% | remaining activity at 1 µM (CDK14/cyclin Y (PFTK1)): 68.8% | remaining activity at 1 µM (CDK16/cyclin Y (PCTAIRE)): 57.4% | remaining activity at 1 µM (CDK2/cyclin A): 55% | remaining activity at 1 µM (CDK3/cyclin E): 77.9% | remaining activity at 1 µM (CHK1): 95.2% | remaining activity at 1 µM (CK2a): 80.3% | remaining activity at 1 µM (DMPK2): 26.3% | remaining activity at 1 µM (EPHA1): 93.1% | remaining activity at 1 µM (ERK2/MAPK1): 109% | remaining activity at 1 µM (FGFR2): 72.5% | remaining activity at 1 µM (FLT4/VEGFR3): 23.3% | remaining activity at 1 µM (FMS): 73% | remaining activity at 1 µM (GRK5): 88.9% | remaining activity at 1 µM (GRK7): 70.7% | remaining activity at 1 µM (KSR2): 101% | remaining activity at 1 µM (LKB1): 102% | remaining activity at 1 µM (NEK8): 72.8% | remaining activity at 1 µM (PIM3): 72.6% | remaining activity at 1 µM (PKCeta): 47.3% | remaining activity at 1 µM (PLK2): 97.5% | remaining activity at 1 µM (SRPK2): 95.3% | remaining activity at 1 µM (SSTK/TSSK6): 79.1% | remaining activity at 1 µM (STK22D/TSSK1): 93.2% | remaining activity at 1 µM (TSSK2): 93.8% | remaining activity at 1 µM (TSSK3/STK22C): 98.3% | remaining activity at 1 µM (p70S6Kb/RPS6KB2): 98.6%
